Assay results: ChEMBL document CHEMBL4616632, “Discovery of Cyclic Boronic Acid QPX7728, an Ultrabroad-Spectrum Inhibitor of Serine and Metallo-β-lactamases” (J Med Chem, 2020)

System: Klebsiella pneumoniae
Test: Inhibition of Klebsiella pneumoniae KP1009 CTX-M-15 assessed as minimum concentration of compound required to reduce the MIC of aztreonam to 4 ug/ml
Details: not given

Row | MEC | Compound
1 | 0.6 µg/mL | CSCC(=O)N[C@H]1Cc2cccc(C(=O)O)c2OB1O
2 | 2.5 µg/mL | CSCC(=O)N[C@H]1Cc2ccc(Sc3nnc(N)s3)c(C(=O)O)c2OB1O
3 | 0.6 µg/mL | CSCC(=O)N[C@H]1Cc2ccc(SCC(N)=O)c(C(=O)O)c2OB1O
4 | 2.5 µg/mL | COc1ccc2c(c1C(=O)O)OB(O)[C@@H](Sc1nncs1)C2
5 | 2.5 µg/mL | CSCC(=O)N[C@H]1Cc2ccc(OCC(=O)O)c(C(=O)O)c2OB1O
6 | 1.25 µg/mL | CSCC(=O)N[C@H]1Cc2ccc(O)c(C(=O)O)c2OB1O
7 | 1.25 µg/mL | CSCC(=O)N[C@H]1Cc2ccc(SCCO)c(C(=O)O)c2OB1O
8 | 1.25 µg/mL | O=C(O)c1c(F)ccc2c1OB(O)[C@H]1C[C@@H]21

System: Escherichia coli
Test: Inhibition of Escherichia coli KP308 SHV-5 assessed as minimum concentration of compound required to reduce the MIC of aztreonam to 4 ug/ml
Details: not given

Row | MEC | Compound
9 | 0.3 µg/mL | COc1ccc2c(c1C(=O)O)OB(O)[C@@H](Sc1nncs1)C2
10 | 1.25 µg/mL | O=C(O)c1c(F)ccc2c1OB(O)[C@H]1C[C@@H]21

System: Escherichia coli
Test: Inhibition of Escherichia coli EC302 TEM-10 assessed as minimum concentration of compound needed to reduce the MIC of aztreonam to 4 ug/ml
Details: not given

Row | MEC | Compound
11 | 5 µg/mL | CSCC(=O)N[C@H]1Cc2cccc(C(=O)O)c2OB1O
12 | 2.5 µg/mL | CSCC(=O)N[C@H]1Cc2ccc(Sc3nnc(N)s3)c(C(=O)O)c2OB1O
13 | 1.25 µg/mL | CSCC(=O)N[C@H]1Cc2ccc(SCC(N)=O)c(C(=O)O)c2OB1O
14 | 2.5 µg/mL | COc1ccc2c(c1C(=O)O)OB(O)[C@@H](Sc1nncs1)C2
15 | 5 µg/mL | CSCC(=O)N[C@H]1Cc2ccc(OCC(=O)O)c(C(=O)O)c2OB1O
16 | 2.5 µg/mL | CSCC(=O)N[C@H]1Cc2ccc(O)c(C(=O)O)c2OB1O
17 | 1.25 µg/mL | CSCC(=O)N[C@H]1Cc2ccc(SCCO)c(C(=O)O)c2OB1O
18 | 1.25 µg/mL | O=C(O)c1c(F)ccc2c1OB(O)[C@H]1C[C@@H]21

Biological target: Beta-lactamase (Klebsiella pneumoniae) (UniProt Q93LQ9)
Sequence (Q93LQ9 as listed by the source): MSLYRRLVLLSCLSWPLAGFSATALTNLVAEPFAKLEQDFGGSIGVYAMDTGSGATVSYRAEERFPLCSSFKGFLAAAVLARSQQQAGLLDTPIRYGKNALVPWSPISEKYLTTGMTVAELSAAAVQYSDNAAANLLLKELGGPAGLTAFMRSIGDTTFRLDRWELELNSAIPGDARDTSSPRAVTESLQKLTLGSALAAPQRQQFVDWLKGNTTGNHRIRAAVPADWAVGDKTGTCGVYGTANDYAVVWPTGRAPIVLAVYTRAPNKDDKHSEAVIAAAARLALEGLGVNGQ
Test: Inhibition of Klebsiella pneumoniae KP1004 KPC-2 assessed as minimum concentration of compound needed to reduce the MIC of aztreonam to 4 ug/ml
Details: not given

Row | MEC | Compound
19 | 0.6 µg/mL | CSCC(=O)N[C@H]1Cc2cccc(C(=O)O)c2OB1O
20 | 5 µg/mL | CSCC(=O)N[C@H]1Cc2ccc(Sc3nnc(N)s3)c(C(=O)O)c2OB1O
21 | 2.5 µg/mL | CSCC(=O)N[C@H]1Cc2ccc(SCC(N)=O)c(C(=O)O)c2OB1O
22 | 1.25 µg/mL | COc1ccc2c(c1C(=O)O)OB(O)[C@@H](Sc1nncs1)C2
23 | 5 µg/mL | CSCC(=O)N[C@H]1Cc2ccc(OCC(=O)O)c(C(=O)O)c2OB1O
24 | 1.25 µg/mL | CSCC(=O)N[C@H]1Cc2ccc(O)c(C(=O)O)c2OB1O
25 | 2.5 µg/mL | CSCC(=O)N[C@H]1Cc2ccc(SCCO)c(C(=O)O)c2OB1O
26 | 0.3 µg/mL | O=C(O)c1c(F)ccc2c1OB(O)[C@H]1C[C@@H]21

System: Enterobacter cloacae
Test: Inhibition of Enterobacter cloacae ECL1002 AmpC assessed as minimum concentration of compound needed to reduce the MIC of aztreonam to 4 ug/ml
Details: not given

Row | MEC | Compound
27 | 0.6 µg/mL | CSCC(=O)N[C@H]1Cc2cccc(C(=O)O)c2OB1O
28 | 2.5 µg/mL | CSCC(=O)N[C@H]1Cc2ccc(Sc3nnc(N)s3)c(C(=O)O)c2OB1O
29 | 2.5 µg/mL | CSCC(=O)N[C@H]1Cc2ccc(SCC(N)=O)c(C(=O)O)c2OB1O
30 | 10 µg/mL | COc1ccc2c(c1C(=O)O)OB(O)[C@@H](Sc1nncs1)C2
31 | 5 µg/mL | CSCC(=O)N[C@H]1Cc2ccc(OCC(=O)O)c(C(=O)O)c2OB1O
32 | 2.5 µg/mL | CSCC(=O)N[C@H]1Cc2ccc(O)c(C(=O)O)c2OB1O
33 | 5 µg/mL | CSCC(=O)N[C@H]1Cc2ccc(SCCO)c(C(=O)O)c2OB1O
34 | 2.5 µg/mL | O=C(O)c1c(F)ccc2c1OB(O)[C@H]1C[C@@H]21

System: Klebsiella pneumoniae
Test: Inhibition of Klebsiella pneumoniae KP1081 NDM-1 assessed as minimum concentration of compound required to reduce the MIC of biapenem to 1 ug/ml
Details: not given

Row | MEC | Compound
35 | 0.3 µg/mL | COc1ccc2c(c1C(=O)O)OB(O)[C@@H](Sc1nncs1)C2
36 | 5 µg/mL | O=C(O)c1c(F)ccc2c1OB(O)[C@H]1C[C@@H]21

System: Klebsiella pneumoniae
Test: Inhibition of Klebsiella pneumoniae KP1054 VIM-1 assessed as minimum concentration of compound required to reduce the MIC of biapenem to 1 ug/ml
Details: not given

Row | MEC | Compound
37 | 0.3 µg/mL | COc1ccc2c(c1C(=O)O)OB(O)[C@@H](Sc1nncs1)C2
38 | > 20 µg/mL | O=C(O)c1c(F)ccc2c1OB(O)[C@H]1C[C@@H]21

System: Pseudomonas aeruginosa
Test: Inhibition of Pseudomonas aeruginosa PAM 2035 AmpC assessed as minimum concentration of compound needed to reduce the MIC of aztreonam to 4 ug/ml
Details: not given

Row | MEC | Compound
39 | 2.5 µg/mL | CSCC(=O)N[C@H]1Cc2cccc(C(=O)O)c2OB1O
40 | > 20 µg/mL | CSCC(=O)N[C@H]1Cc2ccc(Sc3nnc(N)s3)c(C(=O)O)c2OB1O
41 | > 20 µg/mL | CSCC(=O)N[C@H]1Cc2ccc(SCC(N)=O)c(C(=O)O)c2OB1O
42 | 10 µg/mL | COc1ccc2c(c1C(=O)O)OB(O)[C@@H](Sc1nncs1)C2
43 | > 20 µg/mL | CSCC(=O)N[C@H]1Cc2ccc(OCC(=O)O)c(C(=O)O)c2OB1O
44 | 5 µg/mL | CSCC(=O)N[C@H]1Cc2ccc(O)c(C(=O)O)c2OB1O
45 | > 20 µg/mL | CSCC(=O)N[C@H]1Cc2ccc(SCCO)c(C(=O)O)c2OB1O
46 | 5 µg/mL | O=C(O)c1c(F)ccc2c1OB(O)[C@H]1C[C@@H]21

System: Klebsiella pneumoniae
Test: Inhibition of Klebsiella pneumoniae KP1160 IMP-26 assessed as minimum concentration of compound needed to reduce the MIC of meropenem to 1 ug/ml
Details: not given

Row | MEC | Compound
47 | 5 µg/mL | COc1ccc2c(c1C(=O)O)OB(O)[C@@H](Sc1nncs1)C2
48 | > 20 µg/mL | O=C(O)c1c(F)ccc2c1OB(O)[C@H]1C[C@@H]21

System: Escherichia coli
Test: Inhibition of Escherichia coli ECM6625 SHV-5 assessed as minimum concentration of compound needed to reduce the MIC of aztreonam to 4 ug/ml
Details: not given

Row | MEC | Compound
49 | 0.3 µg/mL | COc1ccc2c(c1C(=O)O)OB(O)[C@@H](Sc1nncs1)C2
50 | 1.25 µg/mL | O=C(O)c1c(F)ccc2c1OB(O)[C@H]1C[C@@H]21

System: Escherichia coli
Test: Inhibition of Escherichia coli ECM6619 TEM-10 assessed as minimum concentration of compound needed to reduce the MIC of aztreonam to 4 ug/ml
Details: not given

Row | MIC | MEC | Compound
51 | 2.5 µg/mL | – | COc1ccc2c(c1C(=O)O)OB(O)[C@@H](Sc1nncs1)C2
52 | – | 1.25 µg/mL | O=C(O)c1c(F)ccc2c1OB(O)[C@H]1C[C@@H]21

System: Acinetobacter baumannii
Test: Inhibition of Acinetobacter baumannii AB1053 OXA-72 assessed as minimum concentration of compound needed to reduce the MIC of meropenem to 8 ug/ml
Details: not given

Row | MEC | Compound
53 | > 20 µg/mL | COc1ccc2c(c1C(=O)O)OB(O)[C@@H](Sc1nncs1)C2
54 | 5 µg/mL | O=C(O)c1c(F)ccc2c1OB(O)[C@H]1C[C@@H]21

Biological target: Beta-lactamase OXA-23 (Acinetobacter baumannii) (UniProt Q9L4P2)
Sequence (Q9L4P2 whole entry): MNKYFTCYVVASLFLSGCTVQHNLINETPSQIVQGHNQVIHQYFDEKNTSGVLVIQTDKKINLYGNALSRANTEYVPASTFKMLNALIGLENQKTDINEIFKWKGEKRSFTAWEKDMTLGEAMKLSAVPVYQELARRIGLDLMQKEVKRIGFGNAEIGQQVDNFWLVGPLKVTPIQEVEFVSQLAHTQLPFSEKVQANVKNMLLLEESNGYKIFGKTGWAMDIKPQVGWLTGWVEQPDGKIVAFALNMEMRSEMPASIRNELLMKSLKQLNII
Test: Inhibition of Acinetobacter baumannii AB1054 OXA-23 assessed as minimum concentration of compound needed to reduce the MIC of meropenem to 8 ug/ml
Details: not given

Row | MEC | Compound
55 | > 20 µg/mL | COc1ccc2c(c1C(=O)O)OB(O)[C@@H](Sc1nncs1)C2
56 | 10 µg/mL | O=C(O)c1c(F)ccc2c1OB(O)[C@H]1C[C@@H]21

System: not listed separately
Test: Oral bioavailability in rat at 50 to 75 mg/kg by HPLC/MS analysis
Format: ADME, organism-based
Details: in vivo

Row | bioavailability | Compound
57 | 3% | COc1ccc2c(c1C(=O)O)OB(O)[C@@H](Sc1nncs1)C2

System: Escherichia coli
Test: Inhibition of Escherichia coli EC308 SHV-5 assessed as minimum concentration of compound needed to reduce the MIC of aztreonam to 4 ug/ml
Details: not given

Row | MEC | Compound
58 | < 0.3 µg/mL | CSCC(=O)N[C@H]1Cc2cccc(C(=O)O)c2OB1O
59 | < 0.3 µg/mL | CSCC(=O)N[C@H]1Cc2ccc(Sc3nnc(N)s3)c(C(=O)O)c2OB1O
60 | 0.16 µg/mL | CSCC(=O)N[C@H]1Cc2ccc(SCC(N)=O)c(C(=O)O)c2OB1O
61 | 0.08 µg/mL | CSCC(=O)N[C@H]1Cc2ccc(OCC(=O)O)c(C(=O)O)c2OB1O
62 | < 0.3 µg/mL | CSCC(=O)N[C@H]1Cc2ccc(O)c(C(=O)O)c2OB1O
63 | 0.04 µg/mL | CSCC(=O)N[C@H]1Cc2ccc(SCCO)c(C(=O)O)c2OB1O

System: Pseudomonas aeruginosa
Test: Inhibition of Pseudomonas aeruginosa PAM 1032 KPC-2 assessed as minimum potentiating concentration of compound needed to reduce the MIC of biapenem by 64 fold
Details: not given

Row | Activity | Compound
64 | 80 µg/mL | CSCC(=O)N[C@H]1Cc2cccc(C(=O)O)c2OB1O
65 | 40 µg/mL | CSCC(=O)N[C@H]1Cc2ccc(O)c(C(=O)O)c2OB1O

System: Pseudomonas aeruginosa
Test: Inhibition of Pseudomonas aeruginosa PAM 1154 KPC-2 assessed as assessed as minimum potentiating concentration of compound needed to reduce the MIC of biapenem by 64 fold
Details: not given

Row | Activity | Compound
66 | 5 µg/mL | CSCC(=O)N[C@H]1Cc2cccc(C(=O)O)c2OB1O
67 | 2.5 µg/mL | CSCC(=O)N[C@H]1Cc2ccc(O)c(C(=O)O)c2OB1O

System: not listed separately
Test: Ratio of inhibition of Pseudomonas aeruginosa PAM 1032 KPC-2 assessed as minimum potentiating concentration of compound needed to reduce the MIC of biapenem by 64 fold to inhibition of Pseudomonas aeruginosa PAM 1154 KPC-2 assessed as assessed as minimum potentiating concentration of compound needed to reduce the MIC of biapenem by 64 fold
Details: not given

Row | Ratio | Compound
68 | 8 | CSCC(=O)N[C@H]1Cc2cccc(C(=O)O)c2OB1O
69 | 16 | CSCC(=O)N[C@H]1Cc2ccc(O)c(C(=O)O)c2OB1O
